{
  "source": "patent US10139410B2",
  "about": "“Protein-protein interaction as biomarkers” (H. LEE MOFFITT CANCER CENTER AND RESEARCH INSTITUTE, INC., priority 2011, dated 2018)",
  "key": {"lung cancer cell lines": {"test_system": "lung cancer cell lines", "test": "Sensitivity of lung cancer cell lines to EGFR TKI", "format": "cell-based, human"}, "EGFR-SHC1": {"test_system": "EGFR-SHC1", "format": "in vivo, mice", "details": "H1650 (EGFR mutant) or H322 (EGFR wildtype) xenografts, with or without erlotinib, 18 days", "protocol": "(§1) Tumor xenografts were established in mice with either H1650 (EGFR mutant) or H322 (EGFR wildtype), treated with or without erlotinib and allowed to grow for 18 days. Formalin-fixed, paraffin-embedded tumor tissue was analyzed by PLA for the interaction of EGFR-GRB2 (left) and EGFR-SHC1 (right). Nuclei are shown in blue, PLA signal is red and cytokeratin is green. For clarity, identical images are shown with and without cytokeratin staining for each tumor.\n(§2) Tumor tissues from subcutaneous mouse models of lung cancer will be used. […] Mice have been selected for these experiments since they are most suitable for xenograft and […] studies of lung cancer, are readily available and not endangered, and can be safely maintained in the laboratory animal vivarium. CD-1 nu/nu mice mice will be purchased from approved vendors and housed in institutional animal facilities according to protocols set out by the American Association for Accreditation of Laboratory Animal Care. The inventor currently has active IACUC protocol for establishing subcutaneous tumor xenografts in mice. Both male and female mice of approximately six weeks of age will be used. Mice will be anesthetized in an induction chamber containing 3% isoflurane and 97% oxygen."}, "EGFR-GRB2": {"test_system": "EGFR-GRB2", "format": "in vivo, mice", "details": "H1650 (EGFR mutant) or H322 (EGFR wildtype) xenografts, with or without erlotinib, 18 days", "protocol": "as §1, §2"}, "EGFR": {"test_system": "EGFR", "format": "cell-based, human"}, "phosphor-EGFRY1068": {"test_system": "phosphor-EGFRY1068", "test": "PLA for phosphorylated EGFR in cell lines (single antibody to phospho-EGFR Y1068)", "format": "cell-based, human", "details": "PC9 cells, 3 hours of treatment", "protocol": "9. […] Record start time • b. Incubation time should be 16-18 h\n11. […] Ensure complete coverage of tissue area."}, "EGFR-GRB2 interactions": {"test_system": "EGFR-GRB2 interactions", "parameters": "species or system nude mice", "details": "mouse, in vivo", "protocol": "5. […] Record start time • b. Incubation time should be 16-18 h"}, "[1]": {"test_system": "EGFR binding of Grb2, Mig6, Sts1", "test": "Affinity purification mass spectrometry (AP-MS) of EGFR interactions", "format": "cell-based, human", "details": "cells treated with erlotinib; data not shown", "excerpt": "The present inventors have initiated a system wide and global analysis of the PPI driven by hyperactivated epidermal growth factor receptor (EGFR) resulting from somatic mutation in non-small cell lung cancer (NSCLC) (17-19). The inventors' approach has been to combine (i) affinity purification—mass spectrometry (AP-MS) and (ii) phosphotyrosine proteomics. The inventors use cell models that harbor mutant EGFR proteins and are highly sensitive to EGFR TKI. As the network of EGFR is highly dependent on cell context, this approach offers the best chance of recovering pertinent proteins and mechanisms, a potential flaw in using cells other than lung cancer cells driven by mutant EGFR. Tagged versions of EGFR are initially used to identify interactions and second round of AP-MS is performed to more fully construct the network (20, 21). The inventors simultaneously performed tyrosine phosphoproteomics—tyrosine phosphorylated (pTyr) peptides are enriched using an anti-phosphotyrosine antibody and then identified and quantified on an Orbitrap mass spectrometer using published methods (9). […]\nEGFR inhibitors are predicted to disrupt signaling complexes on the EGFR protein. […] Changes in EGFR PPI will be determined using PLA on these tumor samples. Measurements of EGFR PPI using PLA will be analyzed from the pre-treatment sample and again on the post-treatment sample."}},
  "data": [
    {"smiles": "C#Cc1cccc(Nc2ncnc3cc(OCCOC)c(OCCOC)cc23)c1", "note": "[erlotinib]", "values": [
      {"measurement": "sensitivity to EGFR TKI (erlotinib)", "setting": "lung cancer cell lines; A549, H23 and H460 cells", "value": "resistant"},
      {"measurement": "erlotinib sensitivity", "setting": "lung cancer cell lines; H322 and H1648 cells", "value": "some degree of erlotinib sensitivity"},
      {"measurement": "sensitivity to EGFR TKI (erlotinib)", "setting": "lung cancer cell lines; H1648, H322, H358 and H292 cells, wildtype EGFR", "value": "some degree of sensitivity"},
      {"measurement": "EGFR-SHC1 PLA signal in tumor tissue", "setting": "EGFR-SHC1", "value": "markedly reduced"},
      {"measurement": "EGFR-GRB2 PLA signal in tumor tissue", "setting": "EGFR-GRB2", "value": "markedly reduced"},
      {"measurement": "EGFR tyrosine phosphorylation", "setting": "EGFR", "value": "inhibits"},
      {"measurement": "phosphorylation of EGFR by PLA (pEGFR Y1068), confirmed by immunoblot", "setting": "phosphor-EGFRY1068", "value": "abolishes"},
      {"measurement": "EGFR-GRB2 PLA signal in tumor", "setting": "EGFR-GRB2 interactions", "value": "considerably reduced"},
      {"measurement": "proteins in complex with EGFR (PLA)", "setting": "EGFR-GRB2 interactions", "value": "reductions in proteins in complex with EGFR"},
      {"measurement": "EGFR binding partners by mass spectrometry", "setting": "[1]", "value": "no longer bound Grb2, Mig6 or Sts1"}
    ]}
  ]
}
